Measured values as given in patent US10526329B2 (Galapagos NV, priority 2013, dated 2020).

Assays:
hENPP2 = hENPP2 (Homo sapiens (Human), UniProt Q13822); assay: hENPP2 biochemical assay, LPC as substrate
Protocol: The principle of the assay consists in quantifying the released choline with an enzymatic method using choline oxidase and peroxidase. Choline oxydation by choline oxydase releases betaine and peroxide. The latter is quantified in presence of HRP that converts the peroxide detection agent TOOS and 4-aminoantipyrine into quinoneimine dye. The appearance of quinoneimine dye is measured spectrophotometrically at 555 nm and is proportional to the amount of choline released by ENPP2. Inhibition of ENPP2 will result in a decrease of the signal.
Compound IC50 values are determined in a hENPP2 (UniProtKB/SwissProt Sequence ref Q13822) biochemical assay using LPC as substrate.
The enzyme is diluted in 50 mM Tris-HCl pH 8.5, 500 mM NaCl, 5 mM KCl, 10 mM CaCl2, 0.1% fatty acid free BSA in a total volume of 10 μL. the reaction is started by the addition of 10 μL of 150 μM LPC (palmitoyl 16:0) diluted in the same buffer as described above and the mixture is incubated at 37° C. for 30 min. The reaction is terminated and choline quantified by the addition of a 25 μL of a mixture containing 0.6 U/mL of choline oxidase, 0.6 U/mL of peroxydase, 1.8 mM TOOS, 1.2 mM amino-antipyrine, 20 mM EGTA (stop-developer solution) diluted in the buffer described above. […] is read on the Envision after an incubation of 30 min at room temperature (Excitation 555 nm, excitation light=70%).

[1] = test system: TS-exposed female C57BL/6J mice; assay: Tobacco smoke (TS) model, lungs inflammatory cells recruitment; assay type: in vivo, mouse; conditions: days 6 to 11, TS-exposed mice
Protocol: The aim of this experiment is to evaluate the efficacy and potency of a test compound administered p.o., once or twice daily on days 6 to 11, vs reference compounds, on pulmonary inflammation induced by 11 days of TS-exposure in female C57BL/6J mice, by assessing the effect of a test compound on the tobacco smoke induced recruitment of inflammatory cells to the lungs.
The test compounds are formulated in PEG200/0.5% methylcellulose (25/75, v/v) and are given at a dose volume of 10 mL/kg. Roflumilast and Dexamethasone are included as positive […] control, respectively. Each treatment group consists of 10 mice.
A first group of mice is subjected to daily TS-exposure for 5 consecutive days and sacrificed on the day 6, 24 h after the final TS-exposure.
A second group is exposed to air for 5 consecutive days (sham exposure) and sacrificed on the day 6, 24 h after the final air-exposure.
Compound and reference-treated groups are subjected to daily TS-exposure for 11 consecutive days and sacrificed on the day 12, 24 h after the final TS-exposure. Mice are dosed p.o. on days 6 to 11, twice daily, 1 h prior to and 6 h after each TS-exposure, with either vehicle, or the test compound at 3, 5, 10 or 30 mg/kg. Another group is dosed p.o. on days 6 to 11, once daily, 1 h prior to each TS-exposure, with either vehicle, or the test compound at 10 mg/kg.
An additional group is dosed p.o., once daily, on days 6 to 11, with roflumilast at 5 mg/kg, 1 h prior to each TS-exposure. Dexamethasone is dosed p.o., twice daily, on days 6 to 11, at 0.3 mg/kg, 1 h prior to and 6 h after each TS-exposure.
For each mouse, a BAL is performed using 0.4 mL of PBS. The lavage fluid is centrifuged, the supernatant removed and the resulting cell pellet re-suspended for total cell counts and cytospin slide preparation. […]
The lungs are dissected out and the left lobes are removed, snap-frozen and stored at −80° C. […] Cell data are presented as individual data points for each animal and the mean value calculated for each group. […]
Percentage inhibitions for the cell data are calculated using the formula below: […]

SMILES	IC50 (hENPP2)	number of cells recovered in the BALF, in particular macrophage cells, epithelial cells, and neutrophils ([1]; 10 mg/kg twice daily p.o.)	number of cells recovered in the BALF, in particular macrophage cells, epithelial cells, and neutrophils ([1]; 3 mg/kg twice daily p.o.)
CCc1nc2ccc(C3CCN(C4=NCC(CO)O4)CC3)cn2c1N(C)c1nc(-c2ccc(F)cc2)cs1 (stereo not shown) [Compound 222]	0.5 to 1 µM		
CCc1nc2c(F)cc(N3CCN(CC(=O)N4CC(O)C4)CC3)cn2c1N(C)c1nc(-c2ccc(F)cc2)c(C#N)s1 [Compound 12, 2-((2-ethyl-8-fluoro-6-(4-(2-(3-hydroxyazetidin-1-yl)-2-oxoethyl)piperazin-1-yl)imidazo[1,2-a]pyridin-3-yl)(methyl)amino)-4-(4-fluorophenyl)thiazole-5-carbonitrile]		significantly inhibited	
CCc1nc2c(C)cc(N3CCN(CC(=O)N4CC(O)C4)CC3)cn2c1N(C)c1nc(-c2ccc(F)cc2)c(C#N)s1 [Compound 2, 2-((2-ethyl-6-(4-(2-(3-hydroxyazetidin-1-yl)-2-oxoethyl)piperazin-1-yl)-8-methylimidazo[1,2-a]pyridin-3-yl)(methyl)amino)-4-(4-fluorophenyl)thiazole-5-carbonitrile]		significantly inhibited	significantly inhibited
